Earlier results on three molecules are cited in US5414009A, “Azabicyclo substituted oxa- or thia-diazole compounds” (Novo Nordisk A/S, priority 1992, dated 1995).

Where two headings read alike, the source gives them in different places.

Data set [1] deals with muscarinic receptor in the CNS. The note with it: for Kd: read-out: affinity of sites labelled by 3H-Oxo.
For data set [2] the following is noted: in vivo.
Another data set concerns M1-sites. The note with it: M1-site, pirenzepine sensitive site.

Turning to `C[N+](C)(C)CC#CCN1CCCC1=O` [Compound 3H-Oxo], the “preference for agonist domains of the receptors” value in data set [1] (CNS) is given as “with a preference for agonist domains of the receptors”. The Kd in data set [1] (first of three sites (high affinity)) was 1.8 nM; in data set [1] (second of three sites (medium affinity)) it was 20 nM; in data set [1] (third of three sites), 3000 nM.

As for `COC(=O)C1=CCCN(C)C1` [Arecoline, methyl 1-methyl-1,2,5,6-tetrahydropyridine-3-carboxylate], the biological half life entry in data set [2] is listed as “very short biological half life”. The “separation between central and peripheral muscarinic effects” value in the data set with muscarinic was “small separation between central and peripheral muscarinic effects”. Moreover, the cholinergic agonism result in the data set with muscarinic cholinergic was “cholinergic agonist”.

On to `CN1CCN(CC(=O)N2c3ccccc3C(=O)Nc3cccnc32)CC1` [Pirenzepine, pirenzepine, [N-methyl-^3 H]], for which the “selective binding to subtype of muscarinic receptors” value in the data set with M1-sites is listed as “binds selectively to subtype of muscarinic receptors”. Also, the “interaction with M2-sites” value in the data set on M2-sites is listed as “also interact with M2”.
